Results reported in ChEMBL document CHEMBL1133892 (Bioorg Med Chem Lett, 2001).

Key:
[1] = molecular target: T1, Prostaglandin E2 receptor EP2 subtype (Mus musculus, UniProt Q62053); test: Effective concentration which increases intracellular c-AMP production in mouse Prostanoid EP2 receptor; format: functional, cell-based
[2] = molecular target: Prostaglandin E2 receptor EP4 subtype (Mus musculus, UniProt P32240); test: Binding affinity towards mouse Prostanoid EP4 receptor in CHO cells.; format: cell-based
Prostaglandin E2 receptor EP4 subtype, sequence (P32240 whole entry): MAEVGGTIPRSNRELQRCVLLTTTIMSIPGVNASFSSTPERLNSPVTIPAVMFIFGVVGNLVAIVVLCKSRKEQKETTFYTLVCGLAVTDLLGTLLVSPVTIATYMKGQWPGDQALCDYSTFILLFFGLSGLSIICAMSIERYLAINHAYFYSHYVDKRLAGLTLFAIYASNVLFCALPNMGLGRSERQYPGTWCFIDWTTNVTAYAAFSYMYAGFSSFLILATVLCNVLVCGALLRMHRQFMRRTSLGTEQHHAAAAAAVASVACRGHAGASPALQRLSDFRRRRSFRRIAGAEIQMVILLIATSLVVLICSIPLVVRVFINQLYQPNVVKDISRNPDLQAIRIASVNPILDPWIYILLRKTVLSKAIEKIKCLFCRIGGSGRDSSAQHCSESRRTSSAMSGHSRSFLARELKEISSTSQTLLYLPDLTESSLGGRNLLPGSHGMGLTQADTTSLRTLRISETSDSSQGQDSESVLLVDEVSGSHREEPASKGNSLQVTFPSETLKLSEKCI

[3] = molecular target: T1, Prostaglandin E2 receptor EP2 subtype; test: Binding affinity towards mouse Prostanoid EP2 receptor expressed in CHO cells.; format: cell-based
Prostacyclin receptor [4] = molecular target: T2, Prostacyclin receptor (Homo sapiens, UniProt P43119); test: Binding affinity towards human Prostanoid IP receptor in CHO cells.; format: cell-based
T2 sequence (P43119 whole entry): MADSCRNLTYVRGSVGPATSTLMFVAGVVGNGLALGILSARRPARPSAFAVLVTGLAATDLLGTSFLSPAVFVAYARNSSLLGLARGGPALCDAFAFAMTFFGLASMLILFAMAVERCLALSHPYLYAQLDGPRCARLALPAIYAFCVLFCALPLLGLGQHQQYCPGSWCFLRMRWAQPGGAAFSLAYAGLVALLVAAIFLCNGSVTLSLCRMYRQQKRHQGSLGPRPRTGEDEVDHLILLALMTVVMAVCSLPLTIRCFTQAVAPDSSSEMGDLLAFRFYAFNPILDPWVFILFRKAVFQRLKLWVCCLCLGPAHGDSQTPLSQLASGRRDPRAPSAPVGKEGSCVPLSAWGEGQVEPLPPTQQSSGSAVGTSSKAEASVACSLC

[5] = molecular target: T3, Prostaglandin E2 receptor EP1 subtype (Mus musculus, UniProt P35375); test: Binding affinity towards mouse Prostanoid EP1 receptor in CHO cells.; format: cell-based
T3 sequence (P35375 whole entry): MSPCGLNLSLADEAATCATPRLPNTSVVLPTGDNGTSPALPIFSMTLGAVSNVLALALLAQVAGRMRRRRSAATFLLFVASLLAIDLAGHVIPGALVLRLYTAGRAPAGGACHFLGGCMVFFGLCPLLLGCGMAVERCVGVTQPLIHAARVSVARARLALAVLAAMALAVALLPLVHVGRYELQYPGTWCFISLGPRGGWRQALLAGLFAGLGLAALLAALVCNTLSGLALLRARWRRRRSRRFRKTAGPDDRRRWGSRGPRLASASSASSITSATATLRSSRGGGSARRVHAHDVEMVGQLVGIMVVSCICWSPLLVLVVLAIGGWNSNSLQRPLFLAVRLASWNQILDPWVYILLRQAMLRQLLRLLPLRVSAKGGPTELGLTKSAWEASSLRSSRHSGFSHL

[6] = molecular target: T4, Prostaglandin E2 receptor EP3 subtype (Mus musculus, UniProt P30557); test: Binding affinity towards mouse Prostanoid EP3 receptor in CHO cells.; format: cell-based
T4 sequence (P30557 whole entry): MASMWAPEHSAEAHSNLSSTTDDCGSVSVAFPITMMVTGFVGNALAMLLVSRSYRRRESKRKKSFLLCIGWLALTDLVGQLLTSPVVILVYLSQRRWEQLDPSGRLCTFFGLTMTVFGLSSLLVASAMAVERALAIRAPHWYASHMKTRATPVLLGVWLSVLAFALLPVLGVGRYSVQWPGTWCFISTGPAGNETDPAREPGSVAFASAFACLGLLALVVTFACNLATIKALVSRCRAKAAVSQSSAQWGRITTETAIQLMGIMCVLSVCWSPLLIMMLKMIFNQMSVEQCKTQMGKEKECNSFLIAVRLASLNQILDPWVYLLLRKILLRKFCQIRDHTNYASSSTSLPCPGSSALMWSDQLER

Prostacyclin receptor [7] = molecular target: T2, Prostacyclin receptor; test: Effective concentration which increases intracellular c-AMP production in human Prostanoid IP receptor; format: functional, cell-based
Rattus norvegicus [8] = test: Suppression of uterine motility for the 5-min period before and after the commencenment of intravenous administration to anesthetized pregnant rats; format: functional
[9] = molecular target: T1, Prostaglandin E2 receptor EP2 subtype; test: Effective concentration which increases intracellular c-AMP production in mouse EP2- receptor; format: functional, cell-based
Rattus norvegicus [10] = test: Evaluated for its maximal response of hypotensive effect at 1000 ug/kg, iv; format: functional
[11] = molecular target: Prostaglandin E2 receptor EP2 subtype (Homo sapiens, UniProt P43116); test: Compound was evaluated for its competitive binding affinity towards human Prostanoid EP2 receptor in CHO cells expressing prostanoid receptor; format: cell-based
Prostaglandin E2 receptor EP2 subtype (Homo sapiens, UniProt P43116), sequence (P43116 whole entry): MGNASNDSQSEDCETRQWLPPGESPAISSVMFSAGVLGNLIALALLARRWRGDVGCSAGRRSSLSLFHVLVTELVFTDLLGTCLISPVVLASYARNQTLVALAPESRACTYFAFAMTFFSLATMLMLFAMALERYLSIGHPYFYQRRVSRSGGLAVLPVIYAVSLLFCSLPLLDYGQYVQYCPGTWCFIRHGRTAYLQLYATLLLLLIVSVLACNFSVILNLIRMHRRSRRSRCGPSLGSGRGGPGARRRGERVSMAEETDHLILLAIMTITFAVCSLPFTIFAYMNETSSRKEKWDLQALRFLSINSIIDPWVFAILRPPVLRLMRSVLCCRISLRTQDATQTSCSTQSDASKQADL

Rattus norvegicus [12] = test: Evaluated for its maximal response of hypotensive effect at 300 ug/kg, iv; format: functional

T1 sequence (Q62053 whole entry): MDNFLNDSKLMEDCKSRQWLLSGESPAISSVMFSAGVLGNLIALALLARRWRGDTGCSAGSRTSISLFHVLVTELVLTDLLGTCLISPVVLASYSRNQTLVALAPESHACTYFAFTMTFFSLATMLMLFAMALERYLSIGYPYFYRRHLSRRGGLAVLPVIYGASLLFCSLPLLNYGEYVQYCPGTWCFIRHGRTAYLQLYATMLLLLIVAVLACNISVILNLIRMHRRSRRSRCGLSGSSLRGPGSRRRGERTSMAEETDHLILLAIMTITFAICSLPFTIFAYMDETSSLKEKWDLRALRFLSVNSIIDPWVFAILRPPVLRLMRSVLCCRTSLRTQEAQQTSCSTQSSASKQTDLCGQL

Row | Structure (SMILES) | EC50 [1] [µM] | Ki [2] [µM] | Ki [3] [µM] | Ki (Prostacyclin receptor [4]) [µM] | Ki [5] [µM] | Ki [6] [µM] | EC50 (Prostacyclin receptor [7]) [µM] | EC50 [9] [µM] | Ki [11] [µM] | ED50 (Rattus norvegicus [8]) [mg/kg] | Max response (Rattus norvegicus [10]) [delta mmHg] | Max response (Rattus norvegicus [12]) [delta mmHg]
1 | CCCC1([C@@H](O)C/C=C/C2[C@H](O)CC(=O)[C@@H]2CC#CCCCC(=O)O)CCC1 (some centres undefined) | – | > 10 | 1.1 | – | > 10 | > 10 | – | – | – | – | – | –
2 | CCCC1([C@@H](O)C/C=C/C2[C@H](O)CC(=O)[C@@H]2CCCCCCC(=O)OC)CCC1 (some centres undefined) | – | > 10 | 2.4 | > 10 | > 10 | > 10 | 0.037 | 0.033 | – | – | – | –
3 | CCCC1([C@@H](O)C/C=C/C2[C@H](O)CC(=O)[C@@H]2CCCCCCC(=O)O)CCC1 (some centres undefined) | 0.032 | > 10 | 0.073 | 0.87 | > 10 | > 10 | 0.025 | – | – | 0.455 | 39.8 | –
4 | CCCC1([C@@H](O)C/C=C/C2[C@H](O)CC(=O)[C@@H]2C/C=C/CCCC(=O)O)CCC1 (some centres undefined) | 0.043 | > 10 | 0.092 | – | > 10 | – | > 10 | – | – | 0.275 | 22.8 | –
5 | CCCCCC(O)/C=C/[C@H]1[C@H](O)CC(=O)[C@@H]1CCCCCCC(=O)O (single isomer, unassigned) [ALPROSTADIL] | 0.0026 | 0.0033 | 0.087 | 0.15 | 0.1 | 0.005 | 0.0018 | – | – | – | – | –
6 | CCCC1([C@@H](O)C/C=C/[C@H]2[C@H](O)CC(=O)[C@@H]2C/C=C\CCCC(=O)O)CCC1 | 0.22 | > 10 | 0.33 | > 10 | > 10 | 1.2 | – | – | – | – | – | –
7 | CCCC1([C@@H](O)C/C=C/[C@H]2[C@H](O)CC(=O)[C@@H]2C/C=C\CCCC(=O)O)CCCC1 | 0.58 | > 10 | 0.37 | > 10 | > 10 | – | – | – | – | – | – | –
8 | CCCC1([C@@H](O)C/C=C/[C@H]2[C@H](O)CC(=O)[C@@H]2C/C=C\CCCC(=O)O)CCCCC1 | > 10 | > 10 | 3.3 | – | > 10 | – | – | – | – | – | – | –
9 | CCCCC1([C@@H](O)C/C=C/[C@H]2[C@H](O)CC(=O)[C@@H]2C/C=C\CCCC(=O)O)CCC1 | 0.071 | > 10 | 0.043 | > 10 | 0.78 | 2 | – | – | – | – | – | –

The next molecules have a lower Ki [3] than those just listed; values first:

Row | EC50 [1] [µM] | Ki [2] [µM] | Ki [3] [µM] | Ki (Prostacyclin receptor [4]) [µM] | Ki [5] [µM] | Ki [6] [µM] | EC50 (Prostacyclin receptor [7]) [µM] | EC50 [9] [µM] | Ki [11] [µM] | Structure (SMILES) | ED50 (Rattus norvegicus [8]) [mg/kg] | Max response (Rattus norvegicus [10]) [delta mmHg] | Max response (Rattus norvegicus [12]) [delta mmHg]
10 | 0.045 | > 10 | 0.04 | > 10 | > 10 | – | – | – | – | CC(C)CC1([C@@H](O)C/C=C/[C@H]2[C@H](O)CC(=O)[C@@H]2C/C=C\CCCC(=O)O)CCC1 | – | – | –
11 | 0.0021 | – | 0.038 | > 10 | 0.018 | 0.005 | 0.26 | – | – | CCCCC[C@@H](O)/C=C/[C@H]1[C@H](O)CC(=O)[C@@H]1C/C=C\CCCC(=O)O | > 1.8 | – | –
12 | 0.011 | > 10 | 0.03 | > 10 | > 10 | – | – | – | – | CCC1([C@@H](O)C/C=C/[C@H]2[C@H](O)CC(=O)[C@@H]2C/C=C\CCCC(=O)O)CCC1 | – | – | –
13 | 0.054 | > 10 | 0.025 | – | > 10 | – | > 10 | – | – | CCCC1([C@@H](O)C/C=C/C2[C@H](O)CC(=O)[C@@H]2CCc2ccc(C(=O)O)cc2)CCC1 (some centres undefined) | – | – | –
14 | 0.13 | 2.1 | 0.02 | > 10 | 1.6 | 0.83 | – | – | – | CCCCCC1([C@@H](O)C/C=C/[C@H]2[C@H](O)CC(=O)[C@@H]2C/C=C\CCCC(=O)O)CCC1 | – | – | –
15 | 0.039 | > 10 | 0.013 | > 10 | > 10 | > 10 | – | – | – | CCC1([C@@H](O)C/C=C/[C@@H]2[C@@H](C/C=C\CCCC(=O)O)[C@@H](Cl)C[C@H]2O)CCC1 | – | – | –
16 | 1.4 | > 10 | 0.011 | > 10 | 5.1 | > 10 | – | – | – | CCC1([C@@H](O)C/C=C/[C@@H]2[C@@H](C/C=C\CCCC(=O)O)CC[C@H]2O)CCC1 | – | – | –
17 | 0.0028 | > 10 | 0.0022 | > 10 | 3.4 | > 10 | – | – | 0.00074 | CCC1([C@@H](O)C/C=C/[C@@H]2[C@@H](C/C=C\CCCC(=O)O)[C@H](Cl)C[C@H]2O)CCC1 | 0.0329 | – | 24.4
